What was measured:
ETA = target: T1, ETA (Oryctolagus cuniculus, UniProt A5A8K3); settings: ERBA-A IC50, [125I]-ET-1, rabbit renal artery vascular smooth muscle cells
T1 sequence (A5A8K3 21-427): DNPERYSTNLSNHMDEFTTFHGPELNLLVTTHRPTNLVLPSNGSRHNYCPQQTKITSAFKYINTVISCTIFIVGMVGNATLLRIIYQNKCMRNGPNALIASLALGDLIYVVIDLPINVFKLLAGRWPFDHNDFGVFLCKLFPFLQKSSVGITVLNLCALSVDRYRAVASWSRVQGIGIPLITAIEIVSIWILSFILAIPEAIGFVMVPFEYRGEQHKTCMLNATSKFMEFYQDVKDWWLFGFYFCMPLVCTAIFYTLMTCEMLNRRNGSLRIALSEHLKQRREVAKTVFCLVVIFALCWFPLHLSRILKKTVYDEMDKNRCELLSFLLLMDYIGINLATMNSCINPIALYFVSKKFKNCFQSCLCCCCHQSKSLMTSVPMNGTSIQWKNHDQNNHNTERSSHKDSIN
Procedure: The cells used were rabbit renal artery vascular smooth muscle cells grown in a 48-well dish (1 cm^2) (confluent cells).
The growth media was Dulbecco's Modified Eagles/Ham's F12 which contained 10% fetal bovine serum and antibiotics (penicillin/streptomycin/fungizone).
Second, remove the assay buffers, place the dish on ice, and add 150 μL of cold assay buffer described above to each well. […] Next, place dish in a 37° C., water bath for about 2 hours and gently agitate the dish every 15 minutes. Discard the radioactive incubation mixture in the sink and wash wells 3 times with 1 mL of cold phosphate buffered saline.

human ETB receptor = target: T2, human ETB receptor (Homo sapiens, UniProt P24530); assay: ERBA-B: [125I]-ET-1 binding, recombinant human ETB receptor expressed in CHO-K1 cells; settings: human cloned ETB receptor, read-out: ERBA-B IC50, human cloned receptor data
T2 construct: expressed in transfected cells; host or cells: CHO-K1 cells, pRc-CMW (so in the source) expression vector, electroporation; membranes used
T2 sequence (P24530 27-442): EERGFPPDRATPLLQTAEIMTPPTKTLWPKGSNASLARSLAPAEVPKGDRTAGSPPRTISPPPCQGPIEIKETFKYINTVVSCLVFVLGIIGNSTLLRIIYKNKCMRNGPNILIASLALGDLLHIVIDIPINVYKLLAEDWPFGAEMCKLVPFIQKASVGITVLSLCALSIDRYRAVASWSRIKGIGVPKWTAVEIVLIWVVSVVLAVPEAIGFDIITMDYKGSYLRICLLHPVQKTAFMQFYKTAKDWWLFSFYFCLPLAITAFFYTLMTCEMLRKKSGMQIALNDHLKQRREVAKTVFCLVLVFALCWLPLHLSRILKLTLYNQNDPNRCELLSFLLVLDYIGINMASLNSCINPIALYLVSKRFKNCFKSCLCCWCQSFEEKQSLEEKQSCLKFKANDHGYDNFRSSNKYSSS
Procedure: Count filters for radioactivity in gamma counter.
The above process has also been modified by using human recombinant CHO-K1 cells.
The tissue used for human ETB was recombinant human ETB receptor expressed in CHO-K1 cells (chinese hamster ovary cells). The gene for human ETB receptor was cloned and inserted into the pRc-CMW expression vector, then transfected into CHO-K1 cells by electroporation. For binding assays, membranes (0.7 mg protein) of CHO-K1 cells expressing recombinant human ETB receptor were used.
^d Human cloned receptor data

Row | SMILES | IC50 (ETA) | IC50 (human ETB receptor)
1 | COc1ccc(C2(O)OC(=O)C(c3ccc4c(c3)OCO4)=C2Cc2ccc(OC)c(OC)c2)cc1 (stereo not shown) [Example 304, 3-Benzo[1,3]dioxol-5-yl-4-(3,4-dimethoxy-benzyl)-5-hydroxy-5-(4-methoxy-phenyl)-5H-furan-2-one] | 4.8 nM | 950 nM
2 | COc1ccc(C2(O)OC(=O)C(c3ccc4c(c3)OCO4)=C2Cc2cc(OC)c(OC)cc2OC)cc1 (stereo not shown) [Example 306, 3Benzo[1,3]dioxol-5-yl-5-hydroxy-5-(4-methoxy-phenyl)-4-(2,4,5-trimethoxy-benzyl)-5H-furan-2-one] | 2 nM | 850 nM
3 | COc1ccc(C2(O)OC(=O)C(c3ccc4c(c3)OCO4)=C2Cc2cc(OC)ccc2OC)cc1 (stereo not shown) [Example 307, 3-Benzo[1,3]dioxol-5-yl-4-(2,5-dimethoxy-benzyl)-5-hydroxy-5-(4-methoxy-phenyl)-5H-furan-2-one] | 5.9 nM | 1000 nM
4 | COc1ccc(C2(O)OC(=O)C(c3ccc4c(c3)OCO4)=C2Cc2cccc(OC)c2OC)cc1 (stereo not shown) [Example 308, 3-Benzo[1,3]dioxol-5-yl-4-(2,3-dimethoxy-benzyl)-5-hydroxy-5-(4-methoxy-phenyl)-5H-furan-2-one] | 16 nM | 2200 nM
5 | COc1ccc(C2(O)OC(=O)C(c3ccc4c(c3)OCO4)=C2Cc2ccc(OCc3ccccc3)c(OC)c2)cc1 (stereo not shown) [Example 309, 3-Benzo[1,3]dioxol-5-yl-4-(4-benzyloxy-3-methoxybenzyl)-5-hydroxy-5-(4-methoxy-phenyl)-5H-furan-2-one] | 18 nM | 860 nM
6 | COc1ccc(C2(O)OC(=O)C(c3ccc4c(c3)OCO4)=C2CC2=CC[C@H]3C[C@@H]2C3(C)C)cc1 (stereo partly shown) [Example 310, 3-Benzo[1,3]dioxol-5-yl-4-(6,6-dimethyl-bicyclo[3.1.1]-hept-2-en-2-ylmethyl)-5-hydroxy-5-(4-methoxy-phenyl)-5H-furan-2-one] | 540 nM | 8800 nM
7 | COc1ccc(C2(O)OC(=O)C(c3ccc4c(c3)OCO4)=C2Cc2ccccc2Oc2ccccc2)cc1 (stereo not shown) [Example 313, 3-Benzo[1,3]dioxol-5-yl-5-hydroxy-5-(4-methoxy-phenyl)-4-(2-phenoxy-benzyl) -5H-furan-2-one] | 99 nM | > 2500 nM
8 | COc1ccc(C2(O)OC(=O)C(c3ccc4c(c3)OCO4)=C2CC2CCCC2)cc1 (stereo not shown) [Example 314, 3-Benzo[1,3]dioxol-5-yl-4-cyclopentylmethyl-5-hydroxy-5-(4-methoxy-phenyl)-5H-furan-2-one] | 8.4 nM | 640 nM
9 | CCC(CC)CC1=C(c2ccc3c(c2)OCO3)C(=O)OC1(O)c1ccc(OC)cc1 (stereo not shown) [Example 315, 3-Benzo[1,3]dioxol-5-yl-4-(2-ethyl-butyl)-5-hydroxy-5-(4-methoxy-phenyl)-5H -furan-2-one] | 40 nM | 11800 nM
10 | COc1ccc(C2(O)OC(=O)C(c3ccc4c(c3)OCO4)=C2CC2CC=CCC2)cc1 (stereo not shown) [Example 316, 3-Benzo[1,3]dioxol-5-yl-4-cyclohex-3-enylmethyl-5-hydroxy-5-(4-methoxy-phenyl)-5H-furan-2-one] | 8.1 nM | 690 nM
11 | COc1ccc(C2(O)OC(=O)C(c3ccc4c(c3)OCO4)=C2CC(c2ccccc2)C2CCCC2)cc1 (stereo not shown) [Example 319, 3-Benzo[1,3]dioxol-5-yl-4-(2-cyclopentyl-2-phenylethyl)-5-hydroxy-5-(4methoxy-phenyl)-5H-furan-2-one] | 5.6 nM | 180 nM
12 | COc1ccc(C2(O)OC(=O)C(c3ccc4c(c3)OCO4)=C2CCC2CCCCC2)cc1 (stereo not shown) [Example 322, 3-Benzo-[1,3]dioxol-5-yl-4-(2-cyclohexyl-ethyl)-5-hydroxy-5-(4-methoxy-phenyl)-5H-furan-2-one] | 3300 nM | 4000 nM
13 | COc1ccc(C2(O)OC(=O)C(c3ccc4c(c3)OCO4)=C2Cc2ccccc2Oc2ccc3c(c2)OCO3)cc1 (stereo not shown) [Example 324, 3-Benzo[1,3]dioxol-5-yl-4-[2-(benzo[1,3]dioxol-5-yloxy)-benzyl]-5-hydroxy-5-(4-methoxy-phenyl)-5H-furan-2-one] | 8.4 nM | 5300 nM
14 | C=CCOc1ccc(OC)cc1C1=C(Cc2ccccc2)C(O)(c2ccc(OC)cc2)OC1=O (stereo not shown) [Example 337, 3-(2-Allyloxy-5-methoxy-phenyl)-4-benzyl-5-hydroxy-5-(4-methoxy-phenyl)-5H-furan-2-one] | 2500 nM | > 25000 nM
15 | COc1ccc(C2(O)OC(=O)C(c3ccc4c(c3)OCO4)=C2CC2CCCCCC2)cc1 (stereo not shown) [Example 339, 3-Benzo[1,3]dioxol-5-yl-4-cycloheptylmethyl-5-hydroxy-5-(4-methoxy-phenyl)-5H-furan-2-one] | 240 nM | 1300 nM
16 | CCCCCC1=C(c2ccc3c(c2)OCO3)C(=O)OC1(O)c1ccc(OC)cc1 (stereo not shown) [Example 340, 3-Benzo[1,3]dioxol-5-yl-5-hydroxy-5-(4-methoxy-phenyl)-4-pentyl-5H-furan-2-one] | 69 nM | 630 nM
17 | COc1ccc(C2(O)OC(=O)C(c3ccc4c(c3)OCO4)=C2Cc2ccccc2)c(OCC(=O)O)c1 (stereo not shown) [Example 341, [2(4-Benzo[1,3]dioxol-5-yl-3-benzyl-2-hydroxy-5-oxo-2,5-dihydro-furan-2-yl) -5-methoxy-phenoxy]-acetic acid] | 80 nM | > 2500 nM
18 | C=CCOc1cc(OC)ccc1CC1=C(c2ccc3c(c2)OCO3)C(=O)OC1(O)c1ccc(OC)cc1 (stereo not shown) [Example 343, 4(2-Allyloxy-4-methoxy-benzyl)-3-benzo[1,3]dioxol-5-yl-5-hydroxy-5-(4-methoxy-phenyl)-5H-furan-2-one] | 10 nM | 2200 nM
19 | COc1ccc(C2(O)OC(=O)C(c3ccc4c(c3)OCO4)=C2Cc2ccc(OC)cc2OCC(=O)O)cc1 (stereo not shown) [Example 344, {2-[4-Benzo[1,3]dioxol-5-yl-2-hydroxy-2-(4-methoxy-phenyl)-5-oxo-2,5-dihydro-furan-3-ylmethyl]-5-methoxy-phenoxy}-acetic acid] | 380 nM | > 25000 nM
20 | O=C(O)/C(=C(/Cc1ccccc1)C(=O)c1ccc(-n2ccnc2)cc1)c1ccc2c(c1)OCO2 [Example 348, 2-Butenoic acid, 2-(1,3-benzodioxol-5-yl)-4-[4-(1H-imidazol-1-yl)phenyl]4-oxo-3-(phenylmethyl)-] | 7100 nM | > 25000 nM
21 | COc1ccc(C(=O)/C(Cc2ccc(C(=O)NCCN3CCOCC3)cc2)=C(\C(=O)O)c2ccc3c(c2)OCO3)cc1 [Example 349, 2-benzo[1,3]dioxol-5-yl-4-(4-methoxy-phenyl)-3-[4-(2-morpholin-4-yl-ethylcarbamoyl)-benzyl]-4-oxo-but-2-enoic acid] | 510 nM | 25000 nM
22 | COc1ccc(C(=O)/C(Cc2ccc(OC(C)C)cc2)=C(\C(=O)O)c2ccc3c(c2)OCO3)cc1 [Example 353, Sodium 2-Benzo[1,3]dioxol-5-yl-3-(4-isopropoxy-benzyl)-4-(4-methoxy-phenyl)-4-oxo-but-2-enoate] | 4.4 nM | > 250 nM
23 | COc1ccc(C(=O)/C(Cc2ccccc2)=C(\C(=O)O)c2ccc3c(c2)OCO3)cc1C [Example 355, Sodium 2-Benzo[1,3]dioxol-5-yl-3-benzyl-4-(4-methoxy-3-methyl-phenyl)-4-oxo-but-2-enoate] | 42 nM | 1600 nM
24 | CCOC(=O)COc1c(OC)cc(CC2=C(c3ccc4c(c3)OCO4)C(=O)OC2(O)c2ccc(OC)cc2)cc1OC (stereo not shown) [Example 362, {4-[4-Benzo[1,3]dioxol-5-yl-2-hydroxy-2-(4-methoxyphenyl)-5-oxo-2,5-dihydro-furan-3-ylmethyl]-2,6-dimethoxy-phenoxy}-acetic acid ethyl ester] | 26 nM | 1200 nM
25 | CCOC(=O)COc1cc(CC2=C(c3ccc4c(c3)OCO4)C(=O)OC2(O)c2ccc(OC)cc2)cc(OC)c1OC (stereo not shown) [Example 363, {5-[4-Benzo[1,3]dioxol-5-yl-2-hydroxy-2-(4-methoxyphenyl)-5-oxo-2,5-dihydro-furan-3-ylmethyl]-2,3-dimethoxy-phenoxy}-acetic acid ethyl ester] | < 2.5 nM | 1100 nM
26 | COc1ccc(C(=O)/C(Cc2ccc(NC(C)=O)cc2)=C(\C(=O)O)c2ccc3c(c2)OCO3)cc1 [Example 366, Potassium 3-(4-Acetylamino-benzyl)-2-benzo[1,3]dioxol-5-yl-4-(4-methoxy-phenyl)-4-oxo-but-2-enoate] | 7.3 nM | 4900 nM

From US5691373A, “Nonpeptide endothelin antagonists I” (Warner-Lambert Company, priority 1995, dated 1997)
